Patent US11192863B2, “Antiviral compounds and methods” (Biotron Limited, priority 2003, dated 2021)
Entries after “also recorded” stand apart in the source; their conditions may differ. Where two headings read alike, the source gives them in different places.

What was measured:
HIV = type: cell-based; conditions: for At least 1x log reduction seen in p24 assay?: Table 19b, yes/no
[1] = molecular target: SARS E protein ion channel (Severe acute respiratory syndrome coronavirus, UniProt P59637); type: biochemical, SARS-CoV
SARS-CoV E protein = SARS-CoV E protein (Severe acute respiratory syndrome coronavirus, UniProt P59637); type: cell-based
SARS-CoV E protein, sequence (P59637 whole entry, looked up): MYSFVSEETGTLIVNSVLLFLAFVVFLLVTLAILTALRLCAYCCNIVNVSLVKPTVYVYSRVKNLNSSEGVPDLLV

[2] = test system: SARS-CoV (Hong Kong strain); type: cell-based, SARS coronavirus; conditions: for decrease in virus titre: 10 uM; for Titre (% control): 48 hours; for Average TCID50 (×10^6): 48 hours post infection
human coronavirus OC43 = test: microbe, parasite or virus in culture; type: cell-based; conditions: Betacoronavirus 1, OC43, MRC5, 120 h, MRC-5 cells, 5 days post infection
[3] = test system: porcine respiratory coronavirus (PRCV) strain AR310; test: PRCV plaque assay in ST cells; type: cell-based; conditions: Alphacoronavirus 1; PRCV plaques in ST cells
bovine coronavirus (BCV) = test: BCV plaque assay in MDBK cells; type: cell-based; conditions: Betacoronavirus 1; BCV plaques in MDBK cells
EAV (strain Bucyrus) = test: EAV plaque reduction assay in BHK-21 cells; type: cell-based; conditions: Equine arteritis virus; EAV plaques in BHK-21 cells
Protocol: To determine the antiviral activity of compounds against EAV replication (strain Bucyrus; ATCC VR-796), an assay measuring reduction in the number of plaques formed in monolayers of EAV infected BHK-21 cells (ATCC CCL-10) was developed: […] Plates were subsequently incubated at 37° C. […] Plaques were counted in all wells and the percentage reduction in plaque number compared to solvent control was calculated. Measurements were performed in duplicate to quadruplicate wells.

Dengue 1 strain Hawaii = test: Dengue cytoproliferation assay in LLC-MK2 cells (Alamar Blue); type: cell-based, Dengue virus; conditions: 7 days
Vpu protein = Vpu protein (Human immunodeficiency virus type 1 group M subtype B, UniProt P05919); conditions: for Vpu Inhibition (score/# of times tested): halo of growth score between zero and six, XL1-blue E. coli with pPL-Vpu, no adenine, 37° C.
Vpu protein, sequence (P05919 whole entry): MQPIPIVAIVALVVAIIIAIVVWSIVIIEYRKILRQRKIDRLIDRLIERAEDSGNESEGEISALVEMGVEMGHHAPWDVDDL

MHV (strain MHV-A59) = conditions: L929 cells
229E-CoV E-protein = 229E-CoV E-protein (Human coronavirus 229E, UniProt P19741); test: Bacterial bio-assay for 229E-CoV E-protein; conditions: halo of growth score; E. coli expressing E protein at 37° C.
229E-CoV E-protein, sequence (P19741 whole entry): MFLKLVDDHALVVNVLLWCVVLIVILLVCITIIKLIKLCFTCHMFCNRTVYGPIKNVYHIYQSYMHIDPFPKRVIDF

[4] = molecular target: Dengue virus M protein C-terminal peptide (Dengue virus type 1, UniProt P33478); test: Dengue virus M protein C-terminal peptide ion channel in lipid bilayers; type: biochemical; conditions: final concentration of HMA 100 μM in cis chamber
Dengue virus M protein C-terminal peptide, sequence (P33478 241-280): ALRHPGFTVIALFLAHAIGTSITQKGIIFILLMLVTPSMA
Protocol: The dengue virus M protein C-terminal peptide (DMVC) was dissolved in 2,2,2-trifluorethanol (TFE) at 0.05 mg/ml to 1 mg/ml. […] Channel activity was seen within 15-30 min.
Solutions of 50 mM HMA were prepared by first making a 500 mM solution in DMSO. This solution was further diluted to 50 mM HMA using 0.1 M HCl. 2 μl of the 50 mM HMA was added to the cis chamber after channel activity was seen. The cis chamber contained 1 ml of solution making the final concentration of HMA 100 μM.

[5] = molecular target: 229E E protein ion channel (Human coronavirus 229E, UniProt P19741); test: 229E E protein ion channel in planar lipid bilayers; type: biochemical; conditions: 100 μM added to the cis chamber; FIG. 10
229E E protein ion channel, sequence (P19741 whole entry): as the sequence (P19741 whole entry) above
Protocol: The 229E E synthetic peptide was dissolved in 2,2,2-trifluorethanol (TFE) at 0.05 mg/ml to 1 mg/ml. […] Ionic currents, indicating channel activity in the bilayer, were typically detected within 15-30 min. After channels were detected the holding potential across the bilayer was varied between −100 mV and +100 mV to characterise the size and polarity of current flow and enable the reversal potential to be determined.
To test compounds for their ability to block or otherwise inhibit the ion channel formed by 229E E protein, small aliquots of solutions containing the compounds were added to the aqueous solutions bathing planar lipids in which the peptide channel activity had been reconstituted and the effect of the compound addition on the ionic currents was recorded and measured.
Compound stock solutions were typically prepared at 500 mM in DMSO. This solution was further diluted to 50 mM, or lower concentration in 50% DMSO/50% methanol and 2 μl of the appropriately diluted compound was added to the cis and/or trans chambers to yield the desired final concentration.

[6] = Table 19a, rank among 12 compounds, 1 = highest score

| Compound | At least 1x log reduction seen in p24 assay? (HIV) | % Reduction of average current by 100 μM [1] | SARS E protein Inhibition (score/# of times tested) (SARS-CoV E protein) | decrease in virus titre [2] | Titre (% control) ([2]; Compound Concentration 2 uM) | Average TCID50 (×10^6) ([2]; Compound Concentration 2 uM) | Titre (% control) ([2]; Compound Concentration 10 uM) | Average TCID50 (×10^6) ([2]; Compound Concentration 10 uM) | inhibition at 2.5 µM (human coronavirus OC43) | EC50 [3] | EC50 (bovine coronavirus (BCV)) | IC50 (EAV (strain Bucyrus)) | Bacterial assay rank order (Vpu protein; [6]) | Bacterial assay rank order (Vpu protein; Table 19b) | Vpu Bacterial score (Vpu protein; Table 19b) | Vpu Inhibition (score/# of times tested) (Vpu protein) | Percent reduction in Plaque number/# experiments (MHV (strain MHV-A59); 1 uM) | Percent reduction in Plaque number/# experiments (MHV (strain MHV-A59); 10 uM) | Percent reduction in Plaque number/# experiments (MHV (strain MHV-A59); 20 uM) | 229E E protein Inhibition (score) (229E-CoV E-protein) | further results |
| --- | --- | --- | --- | --- | --- | --- | --- | --- | --- | --- | --- | --- | --- | --- | --- | --- | --- | --- | --- | --- | --- |
| N=C(N)NC(=O)/C=C/c1cccc2ccccc12 [trans-3-(1-napthyl)acryloylguanidine] | yes | 66 ± 2% | 3.38/2 score | approximately 80% | 46 % control | 2.45 ×10^6 | 22 % control | 1.15 ×10^6 | 100% | 19.1 µM | 13 µM | 7.5 µM | 5.5 | 5.5 | 2.9 | 2.9/3 score | 34/3% | 86/3% | 95/2% | 3.7 score | reduction in virus titre ([2]; 2 μM): approximately 50%; Antiviral Percent of Negative Control (Dengue 1 strain Hawaii; Drug Conc. 0.625 μM): 77.7%; Antiviral Percent of Negative Control (Dengue 1 strain Hawaii; Drug Conc. 1.25 μM): 73.7%; Antiviral Percent of Negative Control (Dengue 1 strain Hawaii; Drug Conc. 2.5 μM): 38.7%; Antiviral Percent of Negative Control (Dengue 1 strain Hawaii; Drug Conc. 5 μM): 12.4%; Antiviral Percent of Negative Control (Dengue 1 strain Hawaii; Drug Conc. 10 μM): 6.8% |
| NC(N)=NC(=O)c1nc(Cl)c(N2CCCCCC2)nc1N [5-(N,N-hexamethylene)amiloride] | no | 91 ± 7% | 1.2/3 score | – | – | – | – | – | 30% | 0.06 µM | 9 µM | 7.5 µM | 10 | 10 | 1.9 | 1.9/31 score | 13/2% | 89/1% | 84/2% | 1.9 score | Percent of Positive Control (HIV; Drug Conc. 0.625 μM): 30%; Percent of Positive Control (HIV; Drug Conc. 1.25 μM): 19%; Percent of Positive Control (HIV; Drug Conc. 2.5 μM): 50%; Percent of Positive Control (HIV; Drug Conc. 5 μM): 21%; Percent of Positive Control (HIV; Drug Conc. 10 μM): 6%; ion channel activity of the Dengue virus M protein C-terminal peptide (in words) [4]: Inhibits Ion Channel Activity; bacterial growth around site of drug application (FIG. 5) (Vpu protein; 3 μl drop, minimal medium lacking adenine, 37° C. 48 hr): halo of bacterial growth |
| NC(N)=NC(=O)/C=C/c1ccccc1 [cinnamoylguanidine] | yes | – | 0.69/3 score | approximately 80% | 82 % control | 4.4 ×10^6 | 24 % control | 1.3 ×10^6 | 57% | 0.08 µM | 42 µM | – | 4 | 4 | 3.0 | 2.96/12 score | 52/7% | 88/8% | 97/8% | 1.3 score | E protein ion channel activity (in words) [1]: inhibited; also recorded: significantly reduced; SARS E protein N-terminal peptide channel (in words) [1]: blocked; channels formed by full-length E protein (in words) [1]: blocked; reduction of average current across the bilayer [1]: about 4 fold; average current across the bilayer (in words) ([1]; 100 μM): reduced to baseline; current flow through the 229E E ion channel (in words) [5]: greatly reduced current flow; Antiviral Percent of Negative Control (Dengue 1 strain Hawaii; Drug Conc. 0.625 μM): 76.6%; Antiviral Percent of Negative Control (Dengue 1 strain Hawaii; Drug Conc. 1.25 μM): 72.6%; Antiviral Percent of Negative Control (Dengue 1 strain Hawaii; Drug Conc. 2.5 μM): 58.3%; Antiviral Percent of Negative Control (Dengue 1 strain Hawaii; Drug Conc. 5 μM): 38.6%; Antiviral Percent of Negative Control (Dengue 1 strain Hawaii; Drug Conc. 10 μM): 17.1% |
